Experimental data published in patent US10183021B2, “sGC stimulators” (Ironwood Pharmaceuticals, Inc., priority 2013, dated 2019).
Read-outs that look alike come from different tables or passages of the source.

Target: soluble guanylate cyclase (sGC) (Homo sapiens (Human), UniProt Q02108+Q02153)
Test: sGC-HEK-cGMP assay with SNP incubation, LC/MS detection (Example 2A)
Format: cell-based
Conditions: HEK293 cells, 10 μM SNP, LC/MS detection; for Emax: 100% = BAY 41-2272 at 10 μM, read-out: HEK assay Emax - unconstrained (%)
Method: Human embryonic kidney cells (HEK293), endogenously expressing soluble guanylate cyclase (sGC), were used to evaluate the activity of test compounds. Compounds stimulating the sGC receptor should cause an increase in the intracellular concentration of cGMP. HEK 293 cells were seeded in Dulbecco's Modification of Eagle's Medium supplemented with fetal bovine serum (10% final) and L-glutamine (2 mM final) in a 200 L volume at a density of 1×10^5 cells/well in a poly-D-lysine coated 96 well flat bottom plate and grown overnight at 37° C. Medium was aspirated and cells were washed with 1× Hank's Buffered Saline Salt Solution (200 μL). Cells were then incubated for 15 minutes at 37° C. with 200 μL of a 0.5 mM 3-isobutyl-1-methylxanthine (IBMX) solution. Test article and sodium nitroprusside solutions (x μM concentration for test article solution and 10 μM concentration for SNP solution; wherein x is one of the following concentrations: 30 μM, 10 μM, 3 μM, 1 μM, 0.3 μM, 0.1 μM, 0.03 μM, 0.01 μM, 0.003 μM, 0.001 μM, 0.0003 μM or 0.0001 μM) were then added to the assay mixture (2 μL each) and the resulting mixture incubated at 37° C. for 10 minutes. After the 10 minute incubation, the assay mixture was aspirated and 0.1M HCl (200 μL) was added to the cells. The plate was incubated at 4° C. for 30 minutes in the 0.1M HCl to stop the reaction and lyse the cells. The plates were then centrifuged at 1,200 g for 5 minutes at room temperature. Supernatants were collected and transferred to a new flat bottom 96 well plate for analysis by HPLC-MS. Vehicle controls were carried out using DMSO (1%) solutions. A known sGC stimulator, BAY 41-2272, was used as the positive control. Samples were diluted with an equal volume of 1 M Ammonium Acetate (pH 7) to neutralize samples for better chromatography. A 2× cGMP standard solution was prepared in 0.1 M HCl and then diluted with an equal volume of 1 M Ammonium Acetate, with the following final concentrations in nM: 1024, 512, 256, 128, 64, 32, 16, 8, 4, 2, 1. cGMP concentrations in the test plates were determined from each sample using the LC/MS conditions shown in Table 2 below and the calculated cGMP standard curve. EC50 values were calculated from concentration-response curves generated with GraphPad Prism Software. Data were normalized to a high control using the following equation: 100*(Sample−Low Control)/(High Control−Low Control), where the low control is the average of 6 samples treated with 1% DMSO, and the high control is the average of 8-12 samples treated with 10 uM BAY 41-2272. Data were fit using a non-linear regression, sigmoidal dose response, 3 parameter fits.

[1] = top of curve not fitted to 100%, read-out: HEK assay EC50 - unconstrained
[2] = top of curve fitted to 100%, read-out: HEK assay EC50 - constrained

Chain of soluble guanylate cyclase (sGC) (Q02153 whole entry): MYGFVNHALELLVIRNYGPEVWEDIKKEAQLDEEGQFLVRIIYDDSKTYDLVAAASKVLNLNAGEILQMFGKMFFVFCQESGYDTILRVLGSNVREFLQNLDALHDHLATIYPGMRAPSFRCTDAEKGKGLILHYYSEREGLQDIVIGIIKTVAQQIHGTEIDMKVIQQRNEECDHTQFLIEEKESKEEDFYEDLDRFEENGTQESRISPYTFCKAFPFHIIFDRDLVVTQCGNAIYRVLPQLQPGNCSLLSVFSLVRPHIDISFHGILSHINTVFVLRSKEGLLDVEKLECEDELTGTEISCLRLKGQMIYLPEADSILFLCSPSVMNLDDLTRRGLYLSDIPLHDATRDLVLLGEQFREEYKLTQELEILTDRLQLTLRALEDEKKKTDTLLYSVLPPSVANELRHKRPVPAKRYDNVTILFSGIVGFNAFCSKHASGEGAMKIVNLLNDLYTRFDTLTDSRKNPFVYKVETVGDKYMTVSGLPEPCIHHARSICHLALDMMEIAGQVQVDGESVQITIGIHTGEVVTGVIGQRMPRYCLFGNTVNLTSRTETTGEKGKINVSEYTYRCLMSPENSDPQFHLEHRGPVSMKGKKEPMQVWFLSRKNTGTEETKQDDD
Chain of soluble guanylate cyclase (sGC) (Q02108 whole entry): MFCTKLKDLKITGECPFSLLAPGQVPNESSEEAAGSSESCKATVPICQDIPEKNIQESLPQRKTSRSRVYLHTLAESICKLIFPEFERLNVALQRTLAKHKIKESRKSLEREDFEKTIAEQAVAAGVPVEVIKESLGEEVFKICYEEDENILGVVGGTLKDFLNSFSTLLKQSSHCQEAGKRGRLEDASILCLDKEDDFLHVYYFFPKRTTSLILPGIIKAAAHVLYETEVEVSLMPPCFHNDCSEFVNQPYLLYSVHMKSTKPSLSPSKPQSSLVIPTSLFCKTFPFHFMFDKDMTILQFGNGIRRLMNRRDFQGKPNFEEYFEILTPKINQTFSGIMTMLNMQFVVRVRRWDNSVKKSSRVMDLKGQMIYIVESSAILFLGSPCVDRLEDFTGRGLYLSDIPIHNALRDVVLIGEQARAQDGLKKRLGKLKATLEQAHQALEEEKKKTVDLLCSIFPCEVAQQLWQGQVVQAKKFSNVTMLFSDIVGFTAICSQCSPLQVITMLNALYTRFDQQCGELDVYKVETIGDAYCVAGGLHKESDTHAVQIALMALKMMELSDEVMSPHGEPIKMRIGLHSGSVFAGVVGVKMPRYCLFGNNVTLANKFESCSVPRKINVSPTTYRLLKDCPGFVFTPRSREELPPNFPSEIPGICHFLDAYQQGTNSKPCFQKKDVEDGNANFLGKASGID

O=C(O)[C@H](Cc1ccccc1)Nc1nc(-c2cc(-c3ccon3)n(Cc3ccccc3F)n2)ncc1F [Compound I-80] gave an Emax of 80 to 100% and an EC50 [1] of 500 to 1000 nM.

With OCC1C[C@H]2CC[C@@H](C1)N2c1nc(-c2cc(-c3ccon3)n(Cc3ccccc3F)n2)ncc1F (some centres unmarked) [Compound I-82] the Emax was 60 to 80% and the EC50 [1] was 100 to 500 nM.

Work on O=C(O)C1CN(c2nc(-c3cc(-c4ccon4)n(Cc4ccccc4F)n3)ncc2F)CCO1 (centres unmarked) [Compound I-83] yielded an EC50 [2] greater than 10000 nM.

With CC(C)[C@@H](Nc1nc(-c2cc(-c3ccon3)n(Cc3ccccc3F)n2)ncc1F)C(=O)O [Compound I-86] the Emax was 80 to 100% and the EC50 [1] was 100 to 500 nM.

For O=C(O)[C@H]1Cc2ccccc2N1c1nc(-c2cc(-c3ccon3)n(Cc3ccccc3F)n2)ncc1F [Compound I-91], the Emax was 40 to 60% and the EC50 [1] was 5000 to 10000 nM.

O=C(O)C1C2CCC(C2)N1c1nc(-c2cc(-c3ccon3)n(Cc3ccccc3F)n2)ncc1F (centres unmarked) [Compound I-92] gave an Emax of 60 to 80% and an EC50 [1] of 1000 to 5000 nM.

O=C(O)C1(Nc2nc(-c3cc(-c4ccon4)n(Cc4ccccc4F)n3)ncc2F)CCC1 [Compound I-94] gave an Emax of 60 to 80% and an EC50 [1] of 1000 to 5000 nM.

With O=C(O)C1c2ccccc2CCN1c1nc(-c2cc(-c3ccon3)n(Cc3ccccc3F)n2)ncc1F (centres unmarked) [Compound I-97] the Emax was 60 to 80% and the EC50 [1] was 1 to 100 nM.

With Cc1noc(C2CCCCN2c2nc(-c3cc(-c4ccon4)n(Cc4ccccc4F)n3)ncc2F)n1 (centres unmarked) [Compound I-98] the Emax was 40 to 60% and the EC50 [1] was 1000 to 5000 nM.

O=C(O)C(Nc1nc(-c2cc(-c3ccon3)n(Cc3ccccc3F)n2)ncc1F)C1COC1 (centres unmarked) [Compound I-102] was tested, and the Emax was 60 to 80% and the EC50 [1] was 1000 to 5000 nM.

With CC(C)C[C@@H](Nc1nc(-c2cc(-c3ccon3)n(Cc3ccccc3F)n2)ncc1F)C(=O)O [Compound I-103] the Emax was 80 to 100% and the EC50 [1] was 1 to 100 nM.

NC(=O)C1CCCCN1c1nc(-c2cc(-c3ccon3)n(Cc3ccccc3F)n2)ncc1F (centres unmarked) [Compound I-105] was tested, and the Emax was 40 to 60% and the EC50 [1] was 100 to 500 nM.

With O=C1CCCCCN1CCCNc1nc(-c2cc(-c3ccon3)n(Cc3ccccc3F)n2)ncc1F [Compound I-109] the Emax was 60 to 80% and the EC50 [1] was 100 to 500 nM.

For CC(C)(C)OC(=O)N1CCC(Nc2nc(-c3cc(-c4ccon4)n(Cc4ccccc4F)n3)ncc2F)(C(=O)O)CC1 [Compound I-110], the Emax was 20 to 40% and the EC50 [1] was greater than 10000 nM.

For O=C(O)[C@@H](CO)Nc1nc(-c2cc(-c3ccon3)n(Cc3ccccc3F)n2)ncc1F [Compound I-112], the Emax was 20 to 40% and the EC50 [1] was 1000 to 5000 nM.

For Fc1ccccc1Cn1nc(-c2ncc(F)c(N3CCn4cnnc4C3)n2)cc1-c1ccon1 [Compound I-113], the Emax was 60 to 80% and the EC50 [1] was 500 to 1000 nM.

Work on CCOC(=O)c1nnc2n1CCN(c1nc(-c3cc(-c4ccon4)n(Cc4ccccc4F)n3)ncc1F)C2 [Compound I-115] yielded an Emax of 40 to 60% and an EC50 [1] of 1 to 100 nM.

O=C(O)[C@@H](Cc1ccccc1)Nc1nc(-c2cc(-c3ccon3)n(Cc3ccccc3F)n2)ncc1F [Compound I-116] gave an Emax of 60 to 80% and an EC50 [1] of 100 to 500 nM.

For O=C(O)[C@@H](Nc1nc(-c2cc(-c3ccon3)n(Cc3ccccc3F)n2)ncc1F)c1ccccc1 [Compound I-117], the Emax was 40 to 60% and the EC50 [1] was 1000 to 5000 nM.

In the case of O=C(O)[C@H](Nc1nc(-c2cc(-c3ccon3)n(Cc3ccccc3F)n2)ncc1F)c1ccccc1 [Compound I-118], the Emax is reported as 80 to 100% and the EC50 [1] is reported as 1000 to 5000 nM.

O=C(O)C1Cc2ccccc2CN1c1nc(-c2cc(-c3ccon3)n(Cc3ccccc3F)n2)ncc1F (centres unmarked) [Compound I-119] showed an Emax of 40 to 60% and an EC50 [1] of 100 to 500 nM.

Compound O=C(O)[C@@H]1c2ccccc2CCN1c1nc(-c2cc(-c3ccon3)n(Cc3ccccc3F)n2)ncc1F [Compound I-120] has an Emax of 60 to 80% and an EC50 [1] of 100 to 500 nM.

For N#CC1CCN(c2nc(-c3cc(-c4ccon4)n(Cc4ccccc4F)n3)ncc2F)CC1 [Compound I-123], the Emax was 60 to 80% and the EC50 [1] was 100 to 500 nM.

In the case of CS(=O)(=O)N1CCN(c2nc(-c3cc(-c4ccon4)n(Cc4ccccc4F)n3)ncc2F)CC1 [Compound I-125], the Emax is reported as 40 to 60% and the EC50 [1] is reported as 1 to 100 nM.

CC(C)C[C@@H](C(=O)O)N(C)c1nc(-c2cc(-c3ccon3)n(Cc3ccccc3F)n2)ncc1F [Compound I-137] gave an Emax of 80 to 100% and an EC50 [1] of 100 to 500 nM.

CC(C)(C)OC(=O)NS(=O)(=O)N1CCN(c2nc(-c3cc(-c4ccon4)n(Cc4ccccc4F)n3)ncc2F)CC1 [Compound I-139] gave an Emax of 80 to 100% and an EC50 [1] of 100 to 500 nM.

In the case of N#CCNc1nc(-c2cc(-c3ccon3)n(Cc3ccccc3F)n2)ncc1F [Compound I-141], the Emax is reported as 60 to 80% and the EC50 [1] is reported as 100 to 500 nM.

Work on O=C(NS(=O)(=O)C1CC1)C1CCCCN1c1nc(-c2cc(-c3ccon3)n(Cc3ccccc3F)n2)ncc1F (centres unmarked) [Compound I-144] yielded an Emax of 80 to 100% and an EC50 [1] of 500 to 1000 nM.

For Fc1ccccc1Cn1nc(-c2ncc(F)c(N3CCC(c4nnn[nH]4)CC3)n2)cc1-c1ccon1 [Compound I-145], the Emax was 80 to 100% and the EC50 [1] was 1000 to 5000 nM.

Fc1ccccc1Cn1nc(-c2ncc(F)c(NCc3nn[nH]n3)n2)cc1-c1ccon1 [Compound I-146] gave an Emax of 80 to 100% and an EC50 [1] of 100 to 500 nM.

Work on CC(C)(C)[C@@H](Nc1nc(-c2cc(-c3ccon3)n(Cc3ccccc3F)n2)ncc1F)C(=O)O [Compound I-148] yielded an Emax of 80 to 100% and an EC50 [1] of 100 to 500 nM.

Fc1ccccc1Cn1nc(-c2nc(Cl)c(F)c(N3CCOCC3)n2)cc1-c1ccon1 [Compound I-150] gave an Emax of 40 to 60% and an EC50 [1] of 100 to 500 nM.

CC(C)(C)[C@H](Nc1nc(-c2cc(-c3ccon3)n(Cc3ccccc3F)n2)ncc1F)C(=O)O [Compound I-151] showed an Emax of 60 to 80% and an EC50 [1] of 500 to 1000 nM.

CC1(C)CN(c2nc(-c3cc(-c4ccon4)n(Cc4ccccc4F)n3)ncc2F)CC1C(=O)O (centres unmarked) [Compound I-152] was tested, and the Emax was 80 to 100% and the EC50 [1] was 1 to 100 nM.

For CN(c1ccccc1C(=O)O)c1nc(-c2cc(-c3ccon3)n(Cc3ccccc3F)n2)ncc1F [Compound I-153], the Emax was 60 to 80% and the EC50 [1] was 100 to 500 nM.

O=C(O)C1CCCCC1Nc1nc(-c2cc(-c3ccon3)n(Cc3ccccc3F)n2)ncc1F (centres unmarked) [Compound I-154] gave an Emax of 60 to 80% and an EC50 [1] of 100 to 500 nM.

With OC[C@H]1CCCN1c1nc(-c2cc(-c3ccon3)n(Cc3ccccc3F)n2)ncc1F [Compound I-155] the Emax was 60 to 80% and the EC50 [1] was 100 to 500 nM.

For O=C(O)[C@H]1CCC[C@H]1Nc1nc(-c2cc(-c3ccon3)n(Cc3ccccc3F)n2)ncc1F [Compound I-156], the Emax was 80 to 100% and the EC50 [1] was 100 to 500 nM.

Work on CC(C)C[C@H](Nc1nc(-c2cc(-c3ccon3)n(Cc3ccccc3F)n2)ncc1F)C(=O)NS(=O)(=O)C1CC1 [Compound I-157] yielded an Emax of 60 to 80% and an EC50 [1] of 100 to 500 nM.

With CNS(=O)(=O)N1CCN(c2nc(-c3cc(-c4ccon4)n(Cc4ccccc4F)n3)ncc2F)CC1 [Compound I-158] the Emax was 60 to 80% and the EC50 [1] was 1 to 100 nM.

O=C(O)[C@@H](Cc1ccc(O)cc1)Nc1nc(-c2cc(-c3ccon3)n(Cc3ccccc3F)n2)ncc1F [Compound I-165] gave an EC50 [2] greater than 10000 nM.

In the case of CCOC(=O)CN(Cc1ccccc1)c1nc(-c2cc(-c3ccon3)n(Cc3ccccc3F)n2)ncc1F [Compound I-166], the Emax is reported as 40 to 60% and the EC50 [1] is reported as 100 to 500 nM.

CCOC(=O)CN(C)c1nc(-c2cc(-c3ccon3)n(Cc3ccccc3F)n2)ncc1F [Compound I-167] gave an Emax of 80 to 100% and an EC50 [1] of 1 to 100 nM.

Compound O=C(O)CN(Cc1ccccc1)c1nc(-c2cc(-c3ccon3)n(Cc3ccccc3F)n2)ncc1F [Compound I-168] has an Emax of 60 to 80% and an EC50 [1] of 100 to 500 nM.
